Assay results from patent publication US7332608B2, “Anthranilamides and methods of their use” (SANOFI-AVENTIS Deutschland GmbH, priority 2001, dated 2008).

biological target: T1, Human Kv1.5 channels (Homo sapiens, UniProt P22460); assay: Kv1.5 currents in Xenopus oocytes, two-microelectrode voltage clamp; format: cell-based; settings: human Kv1.5 expressed in Xenopus laevis oocytes; voltage jumps 500 ms to 0 mV and 40 mV; room temperature; Hill equation
T1 construct: expressed in transfected cells; host or cells: Xenopus laevis oocytes injected with in vitro synthesized Kv1.5-encoding RNA
T1 sequence (P22460 whole entry): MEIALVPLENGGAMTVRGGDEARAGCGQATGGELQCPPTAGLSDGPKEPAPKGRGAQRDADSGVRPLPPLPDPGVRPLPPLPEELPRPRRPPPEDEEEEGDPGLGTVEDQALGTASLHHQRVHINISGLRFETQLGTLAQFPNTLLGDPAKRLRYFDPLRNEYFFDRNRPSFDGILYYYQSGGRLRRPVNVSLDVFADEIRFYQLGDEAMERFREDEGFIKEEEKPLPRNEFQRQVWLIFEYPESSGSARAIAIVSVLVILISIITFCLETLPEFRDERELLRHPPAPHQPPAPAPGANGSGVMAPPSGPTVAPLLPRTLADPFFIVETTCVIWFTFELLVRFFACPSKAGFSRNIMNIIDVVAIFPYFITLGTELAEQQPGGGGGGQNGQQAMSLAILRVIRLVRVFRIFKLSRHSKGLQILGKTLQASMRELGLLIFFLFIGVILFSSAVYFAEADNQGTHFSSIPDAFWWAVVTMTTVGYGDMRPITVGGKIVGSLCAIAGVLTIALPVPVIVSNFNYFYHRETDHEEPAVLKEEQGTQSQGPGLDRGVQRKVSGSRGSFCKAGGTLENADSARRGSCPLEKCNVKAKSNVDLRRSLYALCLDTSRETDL
Description: Human Kv1.5 channels were expressed in Xenopus oocytes. For this purpose, firstly ooytes were isolated from Xenopus laevis and were defolliculated. Kv1.5-encoding RNA which had been synthesized in vitro was then injected into these oocytes. After 1-7 days of Kv1.5 protein expression, the Kv1.5 currents were measured on the oocytes by the two-microelectrode voltage clamp technique. The Kv1.5 channels were for this purpose usually activated with voltage jumps lasting 500 ms to 0 mV and 40 mV. A solution of the following composition flowed through the bath: NaCl 96 mM, KCl 2 mM, CaCl2 1.8 mM, MgCl2 1 mM, HEPES 5 mM (titrated to pH 7.4 with NaOH). These experiments were carried out at room temperature. The following were employed for data acquisition and analysis: geneclamp amplifier (Axon Instruments, Foster City, USA) and MacLab D/A converter and software (ADInstruments, Castle Hill, Australia). The compounds of the invention were tested by adding them in various concentrations to the bath solution. The effects of the compounds were calculated as percentage inhibition of the Kv1.5 control current which was obtained when no compound was added to the solution. The data were then extrapolated using the Hill equation in order to determine the inhibitory concentrations IC50 for the respective compounds.

IC50 [nM] | Structure (SMILES)
5000 | CCc1ccc(S(=O)(=O)Nc2ccccc2C(=O)N(Cc2ccccc2)Cc2cccnc2)cc1 [Example 72]
3100 | CCCS(=O)(=O)Nc1ccccc1C(=O)N[C@@H](CC)c1ccccc1 [Example 73]
1700 | CC[C@H](NC(=O)c1ccccc1NS(=O)(=O)CCC(C)C)c1ccccc1 [Example 74]
2900 | Cc1cccc(S(=O)(=O)Nc2ccccc2C(=O)N(Cc2ccccc2)Cc2cccnc2)c1 [Example 75]
4700 | CC[C@H](NC(=O)c1ccccc1NS(=O)(=O)c1ccc(C)cc1OC)c1ccccc1 [Example 76]
2600 | CCc1ccc(S(=O)(=O)Nc2ccccc2C(=O)N[C@@H](CC)c2ccccc2)cc1 [Example 77]
700 | Cc1ccc(S(=O)(=O)Nc2ccccc2C(=O)N(Cc2ccccc2)Cc2cccnc2)cc1 [Example 79]
400 | Cc1ccc(S(=O)(=O)Nc2ccc(F)cc2C(=O)N(Cc2ccccc2)Cc2nccn2C)cc1 [Example 81]
3200 | COc1cccc(CN(CC2CC2)C(=O)c2ccccc2NS(=O)(=O)c2ccc(C)cc2)c1 [Example 82]
1900 | Cc1ccc(S(=O)(=O)Nc2ccccc2C(=O)N(Cc2ccccc2)Cc2cccn2C)cc1 [Example 83]
1000 | Cc1ccc(S(=O)(=O)Nc2ccccc2C(=O)N(Cc2ccccc2)Cc2nccs2)cc1 [Example 84]
5200 | Cc1ccc(S(=O)(=O)Nc2ccccc2C(=O)N(Cc2ccn[nH]2)CC2CC2)cc1 [Example 85]
1800 | Cc1ccc(S(=O)(=O)Nc2ccccc2C(=O)N(Cc2ccccc2)Cc2ccc[nH]2)cc1 [Example 86]
6000 | Cc1ccc(S(=O)(=O)Nc2ccccc2C(=O)N(Cc2cnc3ccccc3c2)CC2CC2)cc1 [Example 87]
3900 | CCc1nc(C)c(CN(Cc2ccccc2)C(=O)c2ccccc2NS(=O)(=O)c2ccc(C)cc2)[nH]1 [Example 88]
3200 | Cc1ccc(S(=O)(=O)Nc2ccccc2C(=O)N(Cc2ccccc2)Cc2nn(C)cc2Cl)cc1 [Example 89]
500 | CC[C@H](NC(=O)c1cc(OC)ccc1NS(=O)(=O)c1ccc(C)cc1)c1ccccc1 [Example 90]
800 | CCC(NC(=O)c1cc(OC)ccc1NS(=O)(=O)c1ccc(C)cc1)c1ccc(F)cc1 (stereo not shown) [Example 91]
900 | CCCC(NC(=O)c1cc(OC)ccc1NS(=O)(=O)c1ccc(C)cc1)c1ccccc1 (stereo not shown) [Example 92]
1100 | COc1ccc(NS(=O)(=O)c2ccc(C)cc2)c(C(=O)NC(c2ccccc2)C2CC2)c1 (stereo not shown) [Example 93]
1000 | O=C(NC(c1ccccc1)C1CC1)c1ccccc1NS(=O)(=O)c1ccccc1 (stereo not shown) [Example 94]
700 | COc1ccc(NS(=O)(=O)c2ccc(C)cc2)c(C(=O)N[C@@H](C)C2CCCCC2)c1 [Example 95]
1000 | COc1cccc([C@H](C)NC(=O)c2cc(OC)ccc2NS(=O)(=O)c2ccc(C)cc2)c1 [Example 96]
900 | COc1ccc([C@H](C)NC(=O)c2cc(OC)ccc2NS(=O)(=O)c2ccc(C)cc2)cc1 [Example 97]
2000 | C[C@@H](c1ccccc1)N(C)C(=O)c1ccccc1NS(=O)(=O)c1ccccc1 [Example 98]

IC50 [nM] | Structure (SMILES)
900 | CC[C@@H](NC(=O)c1cc(OC)ccc1NS(=O)(=O)c1ccc(C)cc1)c1ccccc1 [Example 99]
1600 | Cc1ccc(S(=O)(=O)Nc2ccc(F)cc2C(=O)N(Cc2ccccc2)CC2CCCO2)cc1 (stereo not shown) [Example 100]
900 | Cc1ccc(S(=O)(=O)Nc2ccc(F)cc2C(=O)N(Cc2ccccc2)Cc2cccc(C)n2)cc1 [Example 101]
700 | Cc1ccc(S(=O)(=O)Nc2ccc(F)cc2C(=O)N(Cc2ccccc2)Cc2ccn[nH]2)cc1 [Example 102]
1400 | COc1ccc(NS(=O)(=O)c2ccc(C)cc2)c(C(=O)NC(C)(C)c2ccccc2)c1 [Example 103]
1000 | COc1ccc(NS(=O)(=O)c2ccc(C)cc2)c(C(=O)NC(C)c2ccc(F)cc2)c1 (stereo not shown) [Example 104]
2600 | C[C@H](c1ccccc1)N(C)C(=O)c1ccccc1NS(=O)(=O)c1ccccc1 [Example 105]
3800 | CC[C@H](NC(=O)c1cc(F)ccc1NS(=O)(=O)c1ccc(Cl)cc1)c1ccccc1 [Example 106]
900 | Cc1ccc(S(=O)(=O)Nc2ccc(F)cc2C(=O)N(Cc2ccc(F)cc2)Cc2nccn2C)cc1 [Example 107]
1200 | Cc1ccc(S(=O)(=O)Nc2ccc(F)cc2C(=O)N(Cc2ccc(F)cc2)Cc2ccn[nH]2)cc1 [Example 108]
1100 | Cc1ccc(S(=O)(=O)Nc2ccccc2C(=O)N(Cc2ccc(F)cc2)Cc2nccn2C)cc1 [Example 109]
1000 | Cc1ccc(S(=O)(=O)Nc2ccc(F)cc2C(=O)N(Cc2ccccc2)Cc2nccs2)cc1 [Example 110]
1700 | Cc1ccc(S(=O)(=O)Nc2ccccc2C(=O)N(Cc2nn(C)cc2Cl)CC2CC2)cc1 [Example 111]
500 | Cc1ccc(S(=O)(=O)Nc2ccccc2C(=O)N(Cc2ccccc2)Cc2ccn[nH]2)cc1 [Example 112]
2600 | Cc1ccc(S(=O)(=O)Nc2ccccc2C(=O)N(Cc2cccc(C)n2)CC2CC2)cc1 [Example 113]
1400 | CCCCS(=O)(=O)Nc1ccc(C)cc1C(=O)N[C@H](CC)c1ccccc1 [Example 114]
2400 | CC[C@H](NC(=O)c1cc(F)ccc1NS(=O)(=O)c1ccc(C)cc1)c1ccccc1 [Example 115]
1100 | Cc1ccc(S(=O)(=O)Nc2ccccc2C(=O)N(Cc2ccccc2)CC2CCCO2)cc1 (stereo not shown) [Example 116]
2400 | Cc1ccc(S(=O)(=O)Nc2ccccc2C(=O)N(Cc2ccc(F)cc2)Cc2cccc(C)n2)cc1 [Example 117]
2200 | Cc1ccc(S(=O)(=O)Nc2ccccc2C(=O)N(Cc2cccnc2)Cc2cccc(C)n2)cc1 [Example 118]
2700 | Cc1ccc(S(=O)(=O)Nc2ccccc2C(=O)N(Cc2nccs2)CC2CCCCC2)cc1 [Example 119]
1400 | Cc1ccc(S(=O)(=O)Nc2ccccc2C(=O)N(Cc2cccc(C)n2)CC2CCCO2)cc1 (stereo not shown) [Example 120]
600 | Cc1ccc(S(=O)(=O)Nc2ccccc2C(=O)N(Cc2cccc(C)n2)Cc2ccco2)cc1 [Example 121]
1200 | Cc1ccc(S(=O)(=O)Nc2ccccc2C(=O)N(Cc2ccco2)Cc2nccn2C)cc1 [Example 122]
2900 | CCCCS(=O)(=O)Nc1ccccc1C(=O)N(Cc1cccnc1)Cc1cccc(C)n1 [Example 123]

IC50 [nM] | Structure (SMILES)
1000 | COc1ccc(NS(=O)(=O)c2ccc(C)cc2)c(C(=O)NC(c2ccccn2)C2CC2)c1 (stereo not shown) [Example 124]
1800 | CCCCS(=O)(=O)Nc1ccc(C)cc1C(=O)NC(c1ccccn1)C1CC1 (stereo not shown) [Example 125]
600 | Cc1ccc(S(=O)(=O)Nc2ccc(C)cc2C(=O)NC(c2ccccn2)C2CC2)cc1 (stereo not shown) [Example 126]
3300 | CCCCS(=O)(=O)Nc1ccc(C)cc1C(=O)NC(c1cccc(OC)n1)C1CC1 (stereo not shown) [Example 127]
2200 | C#CC(NC(=O)c1cc(C)ccc1NS(=O)(=O)CCCC)c1ccccc1 (stereo not shown) [Example 128]
1300 | CCCCS(=O)(=O)Nc1ccc(C)cc1C(=O)NC(c1ccc(OC)nc1)C1CC1 (stereo not shown) [Example 129]
700 | CCC(c1ccccc1)N(C)C(=O)c1ccccc1NS(=O)(=O)c1ccccc1 (stereo not shown) [Example 130]
700 | COc1ccc(NS(=O)(=O)c2ccc(C)cc2)c(C(=O)NC(c2cccnc2)C2CC2)c1 (stereo not shown) [Example 131]
1400 | COc1ccc(NS(=O)(=O)c2ccc(C)cc2)c(C(=O)NC(C)Cc2ccccn2)c1 (stereo not shown) [Example 133]
900 | COc1ccc(S(=O)(=O)Nc2ccc(OC)cc2C(=O)NC(c2cccnc2)C2CC2)cc1 (stereo not shown) [Example 134]
1200 | CCC(NC(=O)c1cc(OC)ccc1NS(=O)(=O)c1ccc(C)cc1)c1ccc(C)o1 (stereo not shown) [Example 135]
900 | CCCCS(=O)(=O)Nc1ccc(C)cc1C(=O)NC(CC)c1ccc(C)o1 (stereo not shown) [Example 136]
1800 | CCCCS(=O)(=O)Nc1ccc(C)cc1C(=O)NC(CC)Cc1cccnc1 (stereo not shown) [Example 138]
1000 | CCC(NC(=O)c1cc(OC)ccc1NS(=O)(=O)c1ccc(C)cc1)c1ccc(OC)nc1 (stereo not shown) [Example 139]
1400 | CCC(Cc1c[nH]c2ccccc12)NC(=O)c1cc(OC)ccc1NS(=O)(=O)c1ccc(C)cc1 (stereo not shown) [Example 140]
1100 | CCC(NC(=O)c1cc(OC)ccc1NS(=O)(=O)c1ccc(C)cc1)c1ccc(C)nc1 (stereo not shown) [Example 141]
700 | CCC(Cc1ccccn1)NC(=O)c1cc(OC)ccc1NS(=O)(=O)c1ccc(C)cc1 (stereo not shown) [Example 142]
3600 | COc1ccc(NS(=O)(=O)c2ccc(C)cc2)c(C(=O)N[C@H]2CC[C@H](C)CC2)c1 [Example 143]
2800 | CCCCS(=O)(=O)Nc1ccc(C)cc1C(=O)NC(CC)c1cccnc1 (stereo not shown) [Example 144]
2600 | CCC(NC(=O)c1ccccc1NS(=O)(=O)c1ccc(C)cc1)c1ccco1 (stereo not shown) [Example 145]
2500 | CCC(NC(=O)c1cc(C)ccc1NS(=O)(=O)C1CC1)c1ccc(C)o1 (stereo not shown) [Example 146]
3800 | CC[C@H](NC(=O)c1cc(OC)ccc1NS(=O)(=O)CC)c1ccccc1 [Example 147]
2100 | CCCS(=O)(=O)Nc1ccc(OC)cc1C(=O)N[C@@H](CC)c1ccccc1 [Example 148]
